Measured values published in the NIST ThermoML archive (doi:10.1021/je800609u).

What was measured:
[1] = osmotic coefficient (dimensionless); mn = molality of the nth substance listed, in mol/kg; details: Liquid, vapor pressure osmometery method
[2] = refractive index (Na D-line) (dimensionless); mn = molality of the nth substance listed, in mol/kg; details: 101 kPa, Liquid

CCCCn1cc[n+](C)c1.[Cl-] [1-butyl-3-methylimidazolium chloride] + O
Details	osmotic coefficient, 298.15 K	osmotic coefficient, 308.15 K	osmotic coefficient, 318.15 K	osmotic coefficient, 328.15 K	refractive index, 298.15 K	refractive index, 308.15 K	refractive index, 318.15 K	refractive index, 328.15 K
[1], m1 = 0.0105	1	0.948	0.958	0.978	–	–	–	–
[1], m1 = 0.023	0.958	0.929	0.932	0.939	–	–	–	–
[1], m1 = 0.0289	0.932	0.924	0.935	0.938	–	–	–	–
[1], m1 = 0.0398	0.892	0.911	0.916	0.921	–	–	–	–
[1], m1 = 0.0621	0.855	0.866	0.881	0.906	–	–	–	–
[1], m1 = 0.0803	0.833	0.861	0.869	0.873	–	–	–	–
[1], m1 = 0.0986	0.827	0.864	0.865	0.867	–	–	–	–
[1], m1 = 0.1413	0.814	0.844	0.857	0.862	–	–	–	–
[1], m1 = 0.1816	0.789	0.817	0.823	0.832	–	–	–	–
[1], m1 = 0.2223	0.779	0.794	0.807	0.822	–	–	–	–
[1], m1 = 0.2764	0.772	0.79	0.797	0.81	–	–	–	–
[1], m1 = 0.3386	0.768	0.779	0.798	0.803	–	–	–	–
[1], m1 = 0.371	0.764	0.775	0.784	0.79	–	–	–	–
[1], m1 = 0.4863	0.735	0.747	0.762	0.775	–	–	–	–
[1], m1 = 0.599	0.718	0.738	0.75	0.759	–	–	–	–
[1], m1 = 0.7152	0.716	0.731	0.748	0.755	–	–	–	–
[1], m1 = 0.9754	0.699	0.709	0.723	0.733	–	–	–	–
[1], m1 = 1.492	0.686	0.692	0.713	0.719	–	–	–	–
[1], m1 = 2	0.686	0.694	0.706	0.721	–	–	–	–
[1], m1 = 2.962	0.711	0.721	0.729	0.744	–	–	–	–
[2], m1 = 0.0105	–	–	–	–	1.333	1.3317	1.3292	1.3273
[2], m1 = 0.023	–	–	–	–	1.3334	1.332	1.3295	1.3275
[2], m1 = 0.0289	–	–	–	–	1.3335	1.3323	1.3296	1.3277
[2], m1 = 0.0398	–	–	–	–	1.334	1.3326	1.33	1.328
[2], m1 = 0.0621	–	–	–	–	1.3343	1.333	1.3305	1.3288
[2], m1 = 0.0803	–	–	–	–	1.3349	1.3336	1.331	1.329
[2], m1 = 0.0986	–	–	–	–	1.3354	1.3341	1.3312	1.3297
[2], m1 = 0.1413	–	–	–	–	1.3366	1.3351	1.3325	1.3309
[2], m1 = 0.1816	–	–	–	–	1.3377	1.3363	1.3338	1.3319
[2], m1 = 0.2223	–	–	–	–	1.3388	1.3373	1.3346	1.3331
[2], m1 = 0.2764	–	–	–	–	1.3404	1.3389	1.3362	1.3343
[2], m1 = 0.3386	–	–	–	–	1.3419	1.3403	1.3377	1.3358
[2], m1 = 0.371	–	–	–	–	1.3428	1.3416	1.3387	1.3369
[2], m1 = 0.4863	–	–	–	–	1.3457	1.3441	1.3415	1.3398
[2], m1 = 0.599	–	–	–	–	1.3484	1.3469	1.3442	1.3422
[2], m1 = 0.7152	–	–	–	–	1.3512	1.3497	1.3467	1.3449
[2], m1 = 0.9754	–	–	–	–	1.3571	1.3562	1.3528	1.3508
[2], m1 = 1.492	–	–	–	–	1.3679	1.3661	1.3631	1.3611
[2], m1 = 2	–	–	–	–	1.3774	1.3754	1.3723	1.3703
[2], m1 = 2.962	–	–	–	–	1.3923	1.3904	1.3872	1.3849
